The text below walks through data of patent US7253281B2, “Anti-obesity 1,2,3,4,10,10a-hexahydropyrazino[1,2-a]indoles” (Hoffmann-La Roche Inc., priority 2000, dated 2007).

pEC50, pKi: −log10 of the molar value. Some results are limits rather than exact numbers.

One data set deals with h5-HT2B (Homo sapiens, UniProt P41595). Put plainly: Functional activity, FLIPR calcium assay, h5-HT2B. Type of data set: cell-based.
Data set [1] deals with T1, human 5-HT2A receptor (CHO cells) (Homo sapiens, UniProt P28223).
T1 construct: expressed in transfected cells; host or cells: CHO cells
Put plainly: Functional activity, FLIPR calcium assay, h5-HT2A. Type of data set: cell-based. On the procedure: (§1) The functional activity of compounds of formula (I) was assayed using a Fluorimetric Imaging Plate reader (FLIPR). CHO cells expressing the human 5-HT2C or human 5-HT2A receptors were counted and plated into standard 96 well microtitre plates on the day before testing to give a confluent monolayer. The cells were then dye loaded with the calcium sensitive dye, Fluo-3-AM. Unincorporated dye was removed using an automated cell washer to leave a total volume of 100 μL/well of assay buffer (Hanks balanced salt solution containing 20 mM Hepes and 2.5 mM probenecid). The drug (dissolved in 50 μL of the assay buffer) was added at a rate of 70 μL/sec to each well of the FLIPR 96 well plate during fluorescence measurements. The measurements were taken at 1 sec intervals and the maximum fluorescent signal was measured (approx 10–15 secs after drug addition) and compared with the response produced by 10 μM 5-HT (defined as 100%) to which it was expressed as a percentage response (relative efficacy). Dose response curves were constructed using Graphpad Prism (Graph Software Inc.).

Data set [2] addresses T2, human 5-HT2C receptor (CHO cells) (Homo sapiens, UniProt P28335).
T2 construct: expressed in transfected cells; host or cells: CHO cells
T2 sequence (P28335 33-458): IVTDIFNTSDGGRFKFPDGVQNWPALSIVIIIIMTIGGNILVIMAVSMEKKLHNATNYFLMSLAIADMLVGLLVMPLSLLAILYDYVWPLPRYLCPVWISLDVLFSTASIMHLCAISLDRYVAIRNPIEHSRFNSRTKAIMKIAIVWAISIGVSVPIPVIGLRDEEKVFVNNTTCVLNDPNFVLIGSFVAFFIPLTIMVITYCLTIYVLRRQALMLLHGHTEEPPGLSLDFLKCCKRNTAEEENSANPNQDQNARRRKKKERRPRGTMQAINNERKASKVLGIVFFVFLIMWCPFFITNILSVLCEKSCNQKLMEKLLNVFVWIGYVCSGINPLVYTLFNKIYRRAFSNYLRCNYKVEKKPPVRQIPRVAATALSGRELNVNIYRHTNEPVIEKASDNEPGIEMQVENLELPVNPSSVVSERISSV
The data set can be described thus: Functional activity, FLIPR calcium assay, h5-HT2C. It is filed as cell-based. On the procedure:
as §1

Data set [3] deals with T3, 5-HT2A receptors in a CHO cell line (Homo sapiens, UniProt P28223).
T3 construct: expressed in transfected cells; host or cells: CHO cell line
Put plainly: Binding to 5-HT2A receptor, [125I]-DOI, Method (c). The note with it: read-out: Ki (2A). How it is done:
(§2) The binding of compounds of formula (I) to serotonin receptors was determined in vitro by standard methods. The preparations were investigated in accordance with the assays given hereinafter.
Method (c): For the binding to the 5-HT2A receptor the 5-HT2A receptors were radiolabeled with [^125I]-DOI. The affinity of the compounds for 5-HT2A receptors in a CHO cell line was determined according to the procedure of D. J. McKenna and S. J. Peroutka, J. Neurosci., 1989, 9, 3482–90.

In data set [4] the target is T4, 5-HT2C receptors in a CHO cell line (Homo sapiens, UniProt P28335).
T4 construct: expressed in transfected cells; host or cells: CHO cell line
T4 sequence (P28335 33-458): T2 sequence (P28335 33-458)
The data set can be described thus: Binding to 5-HT2C receptor, [3H]-5-HT, Method (a). The note with it: read-out: Ki (2C). On the procedure: as §2
Method (a): For the binding to the 5-HT2C receptor the 5-HT2C receptors were radiolabeled with [^3H]-5-HT. The affinity of the compounds for 5-HT2C receptors in a CHO cell line was determined according to the procedure of D. Hoyer, G. Engel and H. O. Kalkman, European J. Pharmacol., 1985, 118, 13–23.

For data set [5], the target named is T5, human 5-HT2B receptors in a CHO cell line (Homo sapiens, UniProt P41595).
T5 construct: expressed in transfected cells; host or cells: CHO cell line
Put plainly: Binding to 5-HT2B receptor, [3H]-5-HT, Method (b). The note with it: read-out: Ki (2B). How it is done: as §2
Method (b): For the binding to the 5-HT2B receptor the 5-HT2B receptors were radiolabeled with [^3H]-5-HT. The affinity of the compounds for human 5-HT2B receptors in a CHO cell line was determined according to the procedure of K. Schmuck, C. Ullmer, P. Engels and H. Lubbert, FEBS Lett., 1994, 342, 85–90.

The mark [6] stands for this setting: relative to response of 10 μM 5-HT (100%).

Chain of h5-HT2B (P41595 whole entry): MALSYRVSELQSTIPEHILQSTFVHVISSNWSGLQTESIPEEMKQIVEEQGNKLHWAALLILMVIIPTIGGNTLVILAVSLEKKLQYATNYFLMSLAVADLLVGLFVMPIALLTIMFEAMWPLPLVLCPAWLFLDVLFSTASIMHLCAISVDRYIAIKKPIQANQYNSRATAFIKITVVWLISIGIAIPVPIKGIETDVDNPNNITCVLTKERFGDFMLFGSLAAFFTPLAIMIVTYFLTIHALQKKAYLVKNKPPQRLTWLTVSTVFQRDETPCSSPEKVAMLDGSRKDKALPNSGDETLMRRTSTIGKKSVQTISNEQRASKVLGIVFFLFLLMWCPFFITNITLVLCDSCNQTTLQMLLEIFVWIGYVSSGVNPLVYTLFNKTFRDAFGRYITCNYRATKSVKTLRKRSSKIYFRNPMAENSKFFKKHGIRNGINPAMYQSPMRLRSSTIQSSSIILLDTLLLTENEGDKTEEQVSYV
T1 sequence (P28223 whole entry): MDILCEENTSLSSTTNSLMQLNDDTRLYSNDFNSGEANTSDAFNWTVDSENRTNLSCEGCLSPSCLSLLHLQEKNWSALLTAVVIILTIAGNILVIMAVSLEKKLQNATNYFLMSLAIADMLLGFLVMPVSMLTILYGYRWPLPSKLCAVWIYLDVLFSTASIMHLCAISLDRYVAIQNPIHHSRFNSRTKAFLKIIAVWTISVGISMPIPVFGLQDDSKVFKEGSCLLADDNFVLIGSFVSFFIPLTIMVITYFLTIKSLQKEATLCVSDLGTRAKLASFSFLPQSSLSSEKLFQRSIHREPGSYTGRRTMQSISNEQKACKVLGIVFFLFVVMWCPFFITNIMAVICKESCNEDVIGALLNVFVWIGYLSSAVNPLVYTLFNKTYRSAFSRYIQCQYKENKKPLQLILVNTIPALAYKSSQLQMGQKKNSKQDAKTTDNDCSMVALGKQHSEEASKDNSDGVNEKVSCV
T5 sequence (P41595 whole entry): as the sequence (P41595 whole entry) above
T3 sequence (P28223 whole entry): as the sequence (P28223 whole entry) above

For `CCCCNC(=O)c1ccc2c(c1)N1[C@@H](CNC[C@H]1C)C2.Cl`, the melting point was 125 °C (dec.).
Still for that read-out and setting: as for `C[C@@H]1CNC[C@H]2Cc3ccc(CO)cc3N21.Cl`, the figure is 66 °C (dec.); as for `C[C@@H]1CNC[C@H]2Cc3ccc(C(F)(F)F)cc3N21.Cl`, 221 to 224 °C.
On the same count and under the same terms, as for `C[C@@H]1CNC[C@@H]2Cc3ccc(C(F)(F)F)cc3N21.Cl`, the figure is 245 to 250 °C (dec.); as for `Cc1cc2c(cc1C(F)(F)F)N1[C@H](CNC[C@H]1C)C2.Cl`, 200 to 205 °C; as for `CC(=O)Nc1ccc2c(c1)N1[C@@H](CNC[C@H]1C)C2.Cl`, > 250 °C (dec.).
Consider `C[C@@H]1CNC[C@H]2Cc3ccc(Cl)cc3N21` [Example 8, (4R,10aR)-7-Chloro-4-methyl-1,2,3,4,10,10a-hexahydro-pyrazino[1,2-a]indole], for which the negative logarithm of the EC50 (pEC50) is 8.47 on h5-HT2B (FLIPR); 7.72 in data set [1] (FLIPR, CHO cells); 9.40 in data set [2] (FLIPR, CHO cells). In addition, the “h5-HT2B Relative Efficacy (%)” value on h5-HT2B (setting [6]) worked out at 62%. In data set [1] (setting [6]), the “h5-HT2A Relative Efficacy (%)” value was determined as 60%. In data set [2] (setting [6]), the “h5-HT2c Relative Efficacy (%)” value is 97%.
Consider `O=C1OCCN1CN1CCN2c3cccc(Br)c3C[C@@H]2C1` [Example 3, (10aR)-3-(9-Bromo-3,4,10,10a-tetrahydro-1H-pyrazino[1,2-a]indol-2-ylmethyl)-oxazolidin-2-one], for which the pKi was 6.64 in data set [3], 7.59 in data set [4] and 6.96 in data set [5].
